Consider three substances from patent US10562935B2, “Stapled peptides and uses thereof” (London Health Sciences Centre Research Inc., priority 2015, dated 2020).

Test [1] in a line: Function blocking score: total percent inhibition over migration, invasion, inflammation and fibrosis assays divided by number of assays. Format: cell-based. As to conditions: total percent inhibition for all assays tested divided by number of assays.
Test [2] in a line: Direct HA-binding ELISA of biotinylated peptides on HA coated plates (Example 4). To be noted: for HA binding: as repeated in tables 16, 18, 20; for HA direct binding (OD): optical density, summary tables 15, 17, 19. Also on record: key to HA binding: absorbance (color) read at 450 nm. In short, it runs like this: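 N-terminally biotinylated peptides (AEEA spacer) added to HA-coated wells at 0.8 or 0.08 μM, n=3, overnight at 4° C with shaking; biotin-labeled 7 kDa RHAMM as positive control. Bound peptide detected with streptavidin-HRP (1 hr, room temperature) and TMB substrate (5-10 min), absorbance at 450 nm.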
(In general: ELISA stands for enzyme-linked immunosorbent assay.)

Test [3] relates to RHAMM-overexpressing (LR21) cells. The test is described as follows: Cell invasion assay (Boyden chamber with MATRIGEL, Chemicon ECM555). Format: cell-based. To be noted: for inhibition of cellular invasion (in words): 10 ng/mL peptide, 20 hours, compared to 30% serum control; for Invasion (% inhib.): % inhibition relative to positive control, 10 ng/mL of peptide. In short, it runs like this:
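Serum-starved RHAMM-overexpressing LR21 cells (7.5×10^4) placed in upper Boyden chamber over MATRIGEL-coated filter, with or without 10 ng/mL peptide; 30% FBS/DMEM chemoattractant below. Invaded cells quantified after 20 h by CyQUANT GR fluorescence (480/520 nm); mean ± SD, n=3, versus 30% serum control.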

The test system is the same in test [4]. The test is described as follows: Cell migration assay (Boyden chamber, Chemicon ECM510). Format: cell-based. As to conditions: for inhibition of cell migration (in words): 10 ng/mL peptide, 20 hours, compared to 30% serum control; for Migration (% inhib.): % inhibition relative to positive control. The essentials: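 Serum-starved LR21 cells (7.5×10^4) placed in the upper Boyden chamber with or without 10 ng/mL peptide, with 30% FBS in DMEM as lower-chamber chemoattractant. Cells crossing the membrane after 20 h quantified by CyQUANT GR fluorescence (480/520 nm); mean of n=3, compared with 30% serum control.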

In test [5] the test system is IMR90 human fetal lung fibroblasts. Nature of the test: Fibrosis assay: active TGF-β levels in TGF-β treated fibroblasts (ELISA). Format: cell-based. To be noted: % inhibition relative to positive control.

Bridges are numbered along the chain shown (N, C = ends).

As to Ac-VSKLRSQLVKRKQN-NH2 [Compound 132], the “Function blocking score (FBS)” value in test [1] came out at 17. Besides, in test [2], the HA binding is 0.03 and the “HA direct binding (OD)” value is listed as 0.03 OD. Besides, in test [3], the “inhibition of cellular invasion (in words)” value was “significantly inhibited cellular invasion” and the “Invasion (% inhib.)” value amounted to 66 % inhib. In addition, in test [4], the “inhibition of cell migration (in words)” value was “significantly inhibit cell migration” and the “Migration (% inhib.)” value worked out at 36 % inhib. For the same substance, in test [5], the “Fibrosis (% inhib.)” value was 0 % inhib.
Turning to “Ac-(cyclo-11-15, cyclo-16-20)-KIKHVVKLKD[ENSQK][ESEVK]KLRSQLVKRIK-NH2 [Compound 267]”, the “Function blocking score (FBS)” value in test [1] came out at 0. For the same substance, in test [2], the HA binding was found to be 0.01 and the “HA direct binding (OD)” value was determined as 0.01 OD. The “Invasion (% inhib.)” value in test [3] came to 0 % inhib. The “Migration (% inhib.)” value in test [4] is listed as 0 % inhib. The “Fibrosis (% inhib.)” value in test [5] is reported as 0 % inhib.
As for “Ac-(cyclo-4,8)-VSK[ERSQK]VKRKQN-NH2 (Ac-VSKERSQKVKRKQN-NH2; lactam 4-8; SMILES CC(=O)N[C@H](C(=O)N[C@@H](CO)C(=O)N[C@@H](CCCCN)C(=O)N[C@H]1CCC(=O)NCCCC[C@@H](C(=O)N[C@H](C(=O)N[C@@H](CCCCN)C(=O)N[C@@H](CCCNC(=N)N)C(=O)N[C@@H](CCCCN)C(=O)N[C@@H](CCC(N)=O)C(=O)N[C@@H](CC(N)=O)C(N)=O)C(C)C)NC(=O)[C@H](CCC(N)=O)NC(=O)[C@H](CO)NC(=O)[C@H](CCCNC(=N)N)NC1=O)C(C)C) [Compound 150]”, the “Function blocking score (FBS)” value in test [1] is reported as 27. Besides, in test [2], the HA binding turned out to be 0.015 and the “HA direct binding (OD)” value was determined as 0.015 OD. In addition, in test [3], the “inhibition of cellular invasion (in words)” value was “significantly inhibited cellular invasion” and the “Invasion (% inhib.)” value was 79 % inhib. For the same substance, in test [4], the “inhibition of cell migration (in words)” value was “significantly inhibit cell migration” and the “Migration (% inhib.)” value is listed as 0 % inhib. Besides, in test [5], the “Fibrosis (% inhib.)” value came to 31 % inhib.
